Test: Stability of 1.25 mM coelenterazine-h-h in 50% ethanol and 50% propylene glycol with or without 225 mM ATT, HPLC and Arrhenius plots
Type: physicochemical
Settings: 225 mM ATT, over time at different temperatures
Protocol: The stability of coelenterazine-h-h in the presence and absence of ATT was measured over time at different temperatures. Specifically, 1.25 mM coelenterazine-h-h was present in a solution of 50% ethanol and 50% propylene glycol (i.e., the solution without ATT) or a solution of 50% ethanol and 50% propylene glycol with 225 mM ATT (i.e., the solution with ATT). These two solutions were incubated at −20° C., room temperature (RT), 40° C., or 60° C. and analyzed at 0 days, 1 day, 3 days, 7 days, 15 days, and 30 days.
Following incubation, high performance liquid chromatography (HPLC) was utilized to identify the components of the respective solutions at each time point. Specifically, an Agilent 1100 HPLC instrument was used and equipped with a quaternary pump, thermostatted autosampler and column compartment, and a G1311B diode-array detector. The column used was a Synergi-MAX-RP (Phenomenex, Torrance, Calif.) 100 AÅ 50×4.6 2.5 μm. The run on the HPLC was a gradient run with 0.1% TFA in water and acetonitrile. Absorbance was measured at 262 nanometers (nm). Standards of coelenterazine-h-h and its known degradants were run to confirm both the retention time and absorbance trace. 5 μl of each solution was injected and the retention time of coelenterazine-h-h at room temperature was 5.5 minutes.
The results of the HPLC analysis are shown below in Tables 7 and 8 and FIGS. 3A and 3B, in which the values are reported as relative peak area percentage at 262 nm (i.e., the lamba max of the substrate). […] In each of FIGS. 3A and 3B, diamond is 1.25 mM coelenterazine-h-h incubated over time with or without 225 mM ATT, respectively, at −20° C., triangle is 1.25 mM coelenterazine-h-h incubated over time with or without 225 mM ATT, respectively, at room temperature (RT), star is 1.25 mM coelenterazine-h-h incubated over time with or without 225 mM ATT, respectively, at 40° C., and cross is 1.25 mM coelenterazine-h-h incubated over time with or without 225 mM ATT, respectively, at 60° C.
From the HPLC analysis, the half-life of coelenterazine-h-h in the presence of ATT at 60° C. was calculated to be 10 days while the half-life of coelenterazine-h-h in the absence of ATT at 40° C. and 60° C. was calculated to be 27 days and 8 days, respectively (see Table 9 below).
Additionally, Arrhenius plots were generated for coelenterazine-h-h in the presence and absence of ATT to calculate the half-life of coelenterazine-h-h at various temperatures. The Arrhenius equation is as follows: […]
In FIG. 11, the slope was −10740.9, the intercept was 30.0575, and R^2 was 0.9967.
In FIG. 12, the […], and R^2 was 0.9648.

## Cc1n[nH]c(=S)[nH]c1=O [ATT, 6-methyl-3-thioxo-3,4-dihydro-1,2,4-triazin-5(2H)-one]
  stabilization of coelenterazine-h-h against decomposition: stabilized coelenterazine-h-h against decomposition over time at different temperatures

From US9676997B2, “Compositions and methods for stabilizing luminogenic substrates” (Promega Corporation, priority 2014, dated 2017)
